Activity calls are given as the source filed them. How the calls were made is not given here.

This data set concerns CCRIS mutagenicity, Ames/micronucleus/aberration tests. The experiment in a line: CCRIS mutagenicity studies.
The mark [1] stands for this setting: Test System: AMES SALMONELLA TYPHIMURIUM, Strain/Indicator: TA98, Metabolic Activation: HAMSTER, LIVER, S-9, AROCLOR 1254 (10%), Method: PREINCUBATION
Setting [2] is: Test System: AMES SALMONELLA TYPHIMURIUM, Strain/Indicator: TA98, Metabolic Activation: NONE, Method: PREINCUBATION
[3] abbreviates: Test System: AMES SALMONELLA TYPHIMURIUM, Strain/Indicator: TA98, Metabolic Activation: RAT, LIVER, S-9, AROCLOR 1254 (10%), Method: PREINCUBATION
The mark [4] stands for this setting: Test System: AMES SALMONELLA TYPHIMURIUM, Strain/Indicator: TA100, Metabolic Activation: HAMSTER, LIVER, S-9, AROCLOR 1254 (10%), Method: PREINCUBATION
[5] abbreviates: Test System: AMES SALMONELLA TYPHIMURIUM, Strain/Indicator: TA100, Metabolic Activation: NONE, Method: PREINCUBATION
Setting [6] is: Test System: AMES SALMONELLA TYPHIMURIUM, Strain/Indicator: TA100, Metabolic Activation: NONE, Method: STANDARD PLATE.
The mark [7] stands for this setting: Test System: AMES SALMONELLA TYPHIMURIUM, Strain/Indicator: TA100, Metabolic Activation: RAT, LIVER, S-9, AROCLOR 1254 (10%), Method: PREINCUBATION
Where [8] appears, read: Test System: AMES SALMONELLA TYPHIMURIUM, Strain/Indicator: TA100, Metabolic Activation: RAT, LIVER, S-9, AROCLOR, Method: STANDARD PLATE.

With `CC(C)(C)c1cc(O)ccc1O`, the mutagenic call (Test System: AMES SALMONELLA TYPHIMURIUM, Strain/Indicator: TA97, Metabolic Activation: HAMSTER, LIVER, S-9, AROCLOR 1254 (10%), Method: PREINCUBATION) was “inactive; negative”; the mutagenic call (Test System: AMES SALMONELLA TYPHIMURIUM, Strain/Indicator: TA97, Metabolic Activation: HAMSTER, LIVER, S-9, AROCLOR 1254 (30%), Method: PREINCUBATION) is “inactive; negative”; the mutagenic call (Test System: AMES SALMONELLA TYPHIMURIUM, Strain/Indicator: TA97, Metabolic Activation: NONE, Method: PREINCUBATION) was “inactive; negative”; the mutagenic call (Test System: AMES SALMONELLA TYPHIMURIUM, Strain/Indicator: TA97, Metabolic Activation: NONE, Method: STANDARD PLATE) was “inactive; negative”; the mutagenic call (Test System: AMES SALMONELLA TYPHIMURIUM, Strain/Indicator: TA97, Metabolic Activation: RAT, LIVER, S-9, AROCLOR 1254 (10%), Method: PREINCUBATION) is “inactive; negative”; the mutagenic call (Test System: AMES SALMONELLA TYPHIMURIUM, Strain/Indicator: TA97, Metabolic Activation: RAT, LIVER, S-9, AROCLOR 1254 (30%), Method: PREINCUBATION) is “inactive; negative”. Also, the mutagenic call (Test System: AMES SALMONELLA TYPHIMURIUM, Strain/Indicator: TA97, Metabolic Activation: RAT, LIVER, S-9, AROCLOR, Method: STANDARD PLATE) is “inactive; negative”; the mutagenic call (Test System: AMES SALMONELLA TYPHIMURIUM, Strain/Indicator: TA97, Metabolic Activation: RAT, LIVER, S-9, PCB, Method: PREINCUBATION) was “inactive; negative”; the mutagenic call under setting [1] is “inactive; negative”; the mutagenic call (Test System: AMES SALMONELLA TYPHIMURIUM, Strain/Indicator: TA98, Metabolic Activation: HAMSTER, LIVER, S-9, AROCLOR 1254 (30%), Method: PREINCUBATION) was “inactive; negative”; the mutagenic call under setting [2] is “inactive; negative”; the mutagenic call under setting [3] is “inactive; negative”. Moreover, the mutagenic call is “inactive; negative” (Test System: AMES SALMONELLA TYPHIMURIUM, Strain/Indicator: TA98, Metabolic Activation: RAT, LIVER, S-9, AROCLOR 1254 (30%), Method: PREINCUBATION); “inactive; negative” (Test System: AMES SALMONELLA TYPHIMURIUM, Strain/Indicator: TA98, Metabolic Activation: RAT, LIVER, S-9, PCB, Method: PREINCUBATION); “inactive; negative” under setting [4]; “inactive; negative” (Test System: AMES SALMONELLA TYPHIMURIUM, Strain/Indicator: TA100, Metabolic Activation: HAMSTER, LIVER, S-9, AROCLOR 1254 (30%), Method: PREINCUBATION); “inactive; negative” under setting [5]; “inactive; negative” under setting [6]. Further, the mutagenic call by setting is: under setting [7], “inactive; negative”; (Test System: AMES SALMONELLA TYPHIMURIUM, Strain/Indicator: TA100, Metabolic Activation: RAT, LIVER, S-9, AROCLOR 1254 (30%), Method: PREINCUBATION) “inactive; negative”; under setting [8], “inactive; negative”; (Test System: AMES SALMONELLA TYPHIMURIUM, Strain/Indicator: TA100, Metabolic Activation: RAT, LIVER, S-9, PCB, Method: PREINCUBATION) “inactive; negative”; (Test System: AMES SALMONELLA TYPHIMURIUM, Strain/Indicator: TA102, Metabolic Activation: HAMSTER, LIVER, S-9, AROCLOR 1254 (10%), Method: PREINCUBATION) “inactive; negative”; (Test System: AMES SALMONELLA TYPHIMURIUM, Strain/Indicator: TA102, Metabolic Activation: HAMSTER, LIVER, S-9, AROCLOR 1254 (30%), Method: PREINCUBATION) “inactive; negative”. The mutagenic call by setting is: (Test System: AMES SALMONELLA TYPHIMURIUM, Strain/Indicator: TA102, Metabolic Activation: NONE, Method: PREINCUBATION) “inactive; negative”; (Test System: AMES SALMONELLA TYPHIMURIUM, Strain/Indicator: TA102, Metabolic Activation: NONE, Method: STANDARD PLATE) “inactive; negative”; (Test System: AMES SALMONELLA TYPHIMURIUM, Strain/Indicator: TA102, Metabolic Activation: RAT, LIVER, S-9, AROCLOR 1254 (10%), Method: PREINCUBATION) “inactive; negative”; (Test System: AMES SALMONELLA TYPHIMURIUM, Strain/Indicator: TA102, Metabolic Activation: RAT, LIVER, S-9, AROCLOR 1254 (30%), Method: PREINCUBATION) “inactive; negative”; (Test System: AMES SALMONELLA TYPHIMURIUM, Strain/Indicator: TA102, Metabolic Activation: RAT, LIVER, S-9, AROCLOR, Method: STANDARD PLATE) “inactive; negative”; (Test System: AMES SALMONELLA TYPHIMURIUM, Strain/Indicator: TA102, Metabolic Activation: RAT, LIVER, S-9, PCB, Method: PREINCUBATION) “inactive; negative”. Also, the mutagenic call is “inactive; negative” (Test System: AMES SALMONELLA TYPHIMURIUM, Strain/Indicator: TA104, Metabolic Activation: NONE, Method: PREINCUBATION); “inactive; negative” (Test System: AMES SALMONELLA TYPHIMURIUM, Strain/Indicator: TA104, Metabolic Activation: NONE, Method: STANDARD PLATE); “inactive; negative” (Test System: AMES SALMONELLA TYPHIMURIUM, Strain/Indicator: TA104, Metabolic Activation: RAT, LIVER, S-9, AROCLOR, Method: PREINCUBATION); “inactive; negative” (Test System: AMES SALMONELLA TYPHIMURIUM, Strain/Indicator: TA104, Metabolic Activation: RAT, LIVER, S-9, AROCLOR, Method: STANDARD PLATE).

`CCCCCCCCCCCOC(=O)c1ccccc1C(=O)OCCCCCCCCCCC`: the mutagenic call by setting is: under setting [1], “inactive; negative”; under setting [2], “inactive; negative”; under setting [3], “inactive; negative”; under setting [4], “inactive; negative”; under setting [5], “inactive; negative”; under setting [7], “inactive; negative”. In addition, the mutagenic call runs as follows: (Test System: AMES SALMONELLA TYPHIMURIUM, Strain/Indicator: TA1535, Metabolic Activation: HAMSTER, LIVER, S-9, AROCLOR 1254 (10%), Method: PREINCUBATION) “inactive; negative”; (Test System: AMES SALMONELLA TYPHIMURIUM, Strain/Indicator: TA1535, Metabolic Activation: NONE, Method: PREINCUBATION) “inactive; negative”; (Test System: AMES SALMONELLA TYPHIMURIUM, Strain/Indicator: TA1535, Metabolic Activation: RAT, LIVER, S-9, AROCLOR 1254 (10%), Method: PREINCUBATION) “inactive; negative”; (Test System: AMES SALMONELLA TYPHIMURIUM, Strain/Indicator: TA1537, Metabolic Activation: HAMSTER, LIVER, S-9, AROCLOR 1254 (10%), Method: PREINCUBATION) “inactive; negative”; (Test System: AMES SALMONELLA TYPHIMURIUM, Strain/Indicator: TA1537, Metabolic Activation: NONE, Method: PREINCUBATION) “inactive; negative”; (Test System: AMES SALMONELLA TYPHIMURIUM, Strain/Indicator: TA1537, Metabolic Activation: RAT, LIVER, S-9, AROCLOR 1254 (10%), Method: PREINCUBATION) “inactive; negative”. Besides, the mutagenic call runs as follows: (Test System: MOUSE LYMPHOMA, Strain/Indicator: L5178Y (TK+/TK-), Metabolic Activation: NONE, Method: SUSPENSION/PLATE) “inactive; negative”; (Test System: MOUSE LYMPHOMA, Strain/Indicator: L5178Y (TK+/TK-), Metabolic Activation: RAT LIVER S-9, Method: SUSPENSION/PLATE) “inactive; negative”.

In the case of `CCc1ccc(/C=C/c2ccc([N+](=O)[O-])cc2)cc1`, the mutagenic call reads like this: (Test System: AMES SALMONELLA TYPHIMURIUM, Strain/Indicator: TA98, Metabolic Activation: NONE, Method: STANDARD PLATE) “active; positive”; (Test System: AMES SALMONELLA TYPHIMURIUM, Strain/Indicator: TA98, Metabolic Activation: RAT, LIVER, S-9, AROCLOR, Method: STANDARD PLATE) “active; positive”; under setting [6], “active; positive”; under setting [8], “active; positive”.

Source of the values: PubChem BioAssay AID1259407 (Chemical Carcinogenesis Research Information System (CCRIS), 2018).
